Test results from patent US20060069132A1, “Azolecarboxamide herbicides” (priority 2004, published 2006).

Columns and labels:
goosegrass = assay: Test C pre-/postemergence herbicide test; type: in vivo, Eleusine indica
Outline: (§1)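 Visual injury scores run from 0 (no effect) to 100 (complete control), assessed relative to untreated controls 12 to 14 days after treatment in the greenhouse. Chemicals were formulated in a non-phytotoxic solvent mixture with surfactant and applied to soil after planting or to emerged plants at the 1- to 4-leaf stage.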

lambsquarters = assay: Test C pre-/postemergence herbicide test; type: in vivo, Chenopodium album
Outline: as §1

large crabgrass = assay: Test C pre-/postemergence herbicide test; type: in vivo, Digitaria sanguinalis
Outline: as §1

kochia = assay: Test C pre-/postemergence herbicide test; type: in vivo, Kochia scoparia
Outline: as §1

pigweed [1] = assay: Test B pre-/postemergence herbicide test; type: in vivo, Amaranthus retroflexus; conditions: for Pigweed plant response rating: postemergence, visual rating
Outline: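 Greenhouse pot assay with simultaneous preemergence (treated seed) and postemergence (2–18 cm seedlings) applications of surfactant-containing, non-phytotoxic solvent formulations. Response scored visually 13–15 days later on a 0–100 scale, 100 meaning complete control.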

wild oat = assay: Test B postemergence herbicide test; type: in vivo, Avena fatua; conditions: scale 0 (no effect) to 100 (complete control); for Plant response rating, Oat, Wild: Postemergence, visual rating after 13 to 15 days; for Oat, Wild plant response rating: postemergence, visual rating
Outline: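 Each value is a visual 0–100 response rating taken against controls 13 to 15 days after treatment in the greenhouse. Plants received formulated chemical postemergence at the 1- to 4-leaf stage or, in flooded paddy, at the 2-leaf stage.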

pigweed [2] = assay: Test C pre-/postemergence herbicide test; type: in vivo, Amaranthus retroflexus
Outline: as §1

common ragweed = assay: Test C pre-/postemergence herbicide test; type: in vivo, Ambrosia elatior; set-up: key to Plant response rating, Ragweed: 0 = no effect, 100 = complete control
Outline: as §1

[3] = Postemergence, 250 g ai/ha, scale 0 to 100, 0 no effect, 100 complete control
[4] = postemergence, 125 g ai/ha, scale 0 to 100
[5] = postemergence, 62 g ai/ha, scale 0 to 100
[6] = Postemergence, 500 g ai/ha, visual rating after 13 to 15 days, scale 0 (no effect) to 100 (complete control)
[7] = 125 g ai/ha, scale 0 (no effect) to 100 (complete control)
[8] = preemergence, 125 g ai/ha, 0 to 100 scale, 0 is no effect, 100 is complete control
[9] = 31 g ai/ha, preemergence, scale 0 to 100
[10] = 125 g ai/ha, scale 0 (no effect) to 100 (complete control), visual, 12 to 14 days, preemergence
[11] = 500 g ai/ha, visual rating 0-100, 0 no effect, 100 complete control, preemergence
[12] = Preemergence, 500 g ai/ha, scale 0 to 100, 0 no effect, 100 complete control

Row | SMILES | Plant response rating, Pigweed (pigweed [1]; [6]) | Pigweed plant response rating (pigweed [1]; [7]) | Plant response rating, Pigweed (pigweed [1]; [8]) | Plant response rating, Oat, Wild (wild oat; 500 g ai/ha) | Oat, Wild plant response rating (wild oat; 125 g ai/ha) | Plant response rating (0 = no effect, 100 = complete control), Goosegrass (goosegrass; 62 g ai/ha, preemergence) | Plant response rating, Goosegrass (goosegrass; [10]) | Plant response rating (0 = no effect, 100 = complete control), Lambsquarters (lambsquarters; 62 g ai/ha, preemergence) | Plant response rating, Lambsquarters (lambsquarters; [10]) | Plant response rating (0 = no effect, 100 = complete control), Crabgrass, Large (large crabgrass; 62 g ai/ha, preemergence) | Plant response rating, Crabgrass, Large (large crabgrass; [10]) | Plant response rating (0 = no effect, 100 = complete control), Kochia (kochia; 62 g ai/ha, preemergence) | Plant response rating, Kochia (kochia; [10]) | Plant response rating, Pigweed (pigweed [1]; [11]) | Plant response rating (0 = no effect, 100 = complete control), Pigweed (pigweed [2]; 62 g ai/ha, preemergence) | Plant response rating, Pigweed (pigweed [2]; [10]) | Plant response rating (0 = no effect, 100 = complete control), Ragweed (common ragweed; 62 g ai/ha, preemergence) | Plant response rating, Ragweed (common ragweed; [10]) | other results
1 | CCn1nc(C(C)(C)C)cc1C(=O)Nc1cccc(C(=O)OC)c1 [Compound 81] | 90 | 50 | 20 | 30 | 20 |  |  |  |  |  |  |  |  |  |  |  |  |  | Plant response rating, Goosegrass (goosegrass; [3]): 10; Plant response rating, Goosegrass (goosegrass; [4]): 5; Plant response rating, Goosegrass (goosegrass; [5]): 0; Plant response rating, Lambsquarters (lambsquarters; [3]): 5; Plant response rating, Lambsquarters (lambsquarters; [4]): 5; Plant response rating, Lambsquarters (lambsquarters; [5]): 5; Plant response rating, Crabgrass, Large (large crabgrass; [3]): 30; Plant response rating, Crabgrass, Large (large crabgrass; [4]): 10; Plant response rating, Crabgrass, Large (large crabgrass; [5]): 5; Plant response rating, Kochia (kochia; [3]): 70; Plant response rating, Kochia (kochia; [4]): 20; Plant response rating, Kochia (kochia; [5]): 0; Plant response rating, Pigweed (pigweed [2]; [3]): 40; Plant response rating, Pigweed (pigweed [2]; [4]): 10; Plant response rating, Pigweed (pigweed [2]; [5]): 5; Plant response rating, Ragweed (common ragweed; [3]): 60; Plant response rating, Ragweed (common ragweed; [4]): 60; Plant response rating, Ragweed (common ragweed; [5]): 40
2 | CCC(=NO)c1cccc(NC(=O)c2cc(C(C)(C)C)nn2C)c1 [Compound 118] | 100 | 60 | 60 | 20 | 20 | 20 | 80 | 50 | 60 | 70 | 100 | 20 | 20 | 90 | 70 | 90 | 0 | 10 | Plant response rating, Goosegrass (goosegrass; [9]): 20; Plant response rating, Lambsquarters (lambsquarters; [9]): 50; Plant response rating, Crabgrass, Large (large crabgrass; [9]): 10; Plant response rating, Kochia (kochia; [9]): 10; Plant response rating, Pigweed (pigweed [2]; [9]): 20; Plant response rating, Ragweed (common ragweed; [9]): 0
3 | CCn1nc(C(C)(C)C)cc1C(=O)Nc1cc(C#N)ccc1F [Compound 140] |  | 0 | 0 |  | 0 | 0 | 0 | 75 | 85 | 0 | 65 | 70 | 75 | 80 | 100 | 100 | 0 | 0 | Goosegrass plant response rating (goosegrass; [12]): 75; Lambsquarters plant response rating (lambsquarters; [12]): 100; Plant response rating, Crabgrass, Large (large crabgrass; 250 g ai/ha, scale 0 to 100 (0 no effect, 100 complete control), visual, 12 to 14 days, preemergence): 75; Crabgrass, Large plant response rating (large crabgrass; [12]): 100; Kochia plant response rating (kochia; [12]): 100; Pigweed plant response rating (pigweed [1]; 500 g ai/ha, scale 0 (no effect) to 100 (complete control)): 0; Oat, Wild plant response rating (wild oat; 500 g ai/ha): 0; Pigweed plant response rating (pigweed [2]; [12]): 100; Ragweed plant response rating (common ragweed; [12]): 95
